Laboratory results as given in patent publication US20190133997A1, “ARTEMISININ ANALOG, AND USE, METHOD, AND COMPOSITION FOR PROMOTING LIPID CATABOLISM AND IMPROVING SUGAR METABOLISM” (FUDAN UNIVERSITY, priority 2016, published 2019).

Key:
[1] = tested on: obese mice induced by high-fat diet; assay: Subcutaneous artemether, glucose and insulin tolerance tests in high-fat diet obese mice; assay type: in vivo, Male C57BL/6J mice; details: subcutaneous injection, eight weeks
Method: The mice were breeded in the SPF animal laboratory of the Laboratory Animal Center of Fudan University at a room temperature of 21° C.-23° C. with a 12-hour light/dark cycle. […] When the mice were grown to 8-week old, they were randomly divided into a control group and an administration group, with 8 mice in each group. While the mice were fed with a high-fat diet, artemether was injected subcutaneously. Artemether was diluted in PBS at a concentration of […], and injected into bilateral inguinal region, with 200 μl being injected into each side. Mice in control group were injected with the same volume of PBS. Administration was continued for eight weeks.
The mice were fasted for 12-16 hours and injected intraperitoneally with glucose injection at a dose of […]. At 0 min, 30 min, 60 min, 90 min, and 120 min after injection, blood was collected from the tail vein, and blood glucose was measured with OneTouch ExtraEasy glucometer and OneTouch ExtraEasy blood glucose test strips and the results were recorded.
Insulin was injected intraperitoneally at a dose of 0.75 U/kg weight. At 0 min, 15 min, 30 min, 45 min and 60 min after injection, blood was collected from the tail vein, and blood glucose was measured.

[2] = tested on: 3T3-L1 white preadipocytes; assay: Artemether-induced browning of 3T3-L1 white preadipocytes during differentiation (morphology, UCP1 mRNA by Real time qPCR); assay type: cell-based; details: vs control, concentration-dependent tendency
Method: 2.5×10^5 3T3-L1 white preadipocytes were seeded in a 3.5 cm cell culture dish, and cultured for 3 days in a maintenance medium. Cells proliferated to contact inhibition. 48 hours after the contact inhibition was reached, the medium was changed to induced differentiation medium, and the induced differentiation mixture including 0.5 mMol/L 3-isobutyl-1-methylxanthine (Mix), 1 μMol/L dexamethasone (Dex) and 1 μg/ml insulin (Insulin) was added. The induced differentiation mixture is referred to as MDI for short. The day of adding MDI was defined as Day 0 of differentiation. After 2 days of culture in the above medium, fresh induced differentiation medium was replaced, and 1 μg/ml insulin was added to the medium. After another 2 days of culture, the fresh induced differentiation medium was replaced, and the medium was changed every other day until the culture was differentiated to Day 8. […]
3T3-L1 differentiated to mature was induced in a 3.5 cm culture dish, with the method of differentiation referring to Method 1.4.1. […] The precipitate was dissolved in 60 μl DEPC water, and quantified by Colibri Tepertec and stored at −80° C. […]
The relative amount of mRNA was calculated according to the AACT method, with 18S being used as an internal reference. […]

ob/ob mice = assay: Intraperitoneal artemether, weight gain in diabetic ob/ob mice; assay type: in vivo, Male ob/ob mice; details: intraperitoneal 20 mg/kg twice a week, eight weeks
Method: The ob/ob mice were breeded in the SPF animal laboratory of the Laboratory Animal Center of Fudan University at a room temperature of 21° C.-23° C. with a 12-hour light/dark cycle. When the mice were grown to 4-week old, they were randomly divided into a control group and an administration group, with 4 mice in each group. The administration group was injected intraperitoneally with artemether. Artemether for intraperitoneal injection was stored at 4° C. in coconut oil at a storage concentration of 6 mg/ml (20 mMol/L), and protected from light. Ob/ob mice in administration group were injected with artemether at a dose of 20 mg/kg weight. Administration was twice a week for eight weeks, and the weight of the mice was recorded weekly.

[3] = Intraperitoneal artemether, food intake of mice on normal and high-fat diet; assay type: in vivo, Male C57BL/6J mice; details: intraperitoneal 20 mg/kg
Method: The mice were breeded in the SPF animal laboratory of the Laboratory Animal Center of Fudan University at a room temperature of 21° C.-23° C. with a 12-hour light/dark cycle. When the mice were grown to 8-week old, they were randomly divided into four groups, a high-fat control group, a high-fat administration group, a normal administration group, and a normal control group, with 8 mice in each group. Administration groups (high-fat and normal diet) were injected intraperitoneally with artemether. Artemether for intraperitoneal injection was stored at 4° C. in coconut oil at a storage concentration of 6 mg/ml (20 mMol/L), and protected from light. Mice in administration group were injected with artemether at a dose of 20 mg/kg weight, and mice in control group were injected with 100 μl coconut oil. The diet was weighed weekly and the diet consumption of mice in each group was recorded.

high fat-fed mice = assay: Intraperitoneal artemether, adipose tissue in high fat-fed mice; assay type: in vivo, Male C57BL/6J mice; details: high-fat diet, intraperitoneal 20 mg/kg twice a week, eight weeks
Method: The mice were breeded in the SPF animal laboratory of the Laboratory Animal Center of Fudan University at a room temperature of 21° C.-23° C. with a 12-hour light/dark cycle. […] When the mice were grown to 8-week old, they were randomly divided into a control group and an administration group, with 8 mice in each group. While the mice were fed with a high-fat diet, artemether was injected intraperitoneally. Artemether for intraperitoneal injection was stored at 4° C. in coconut oil at a storage concentration of 6 mg/ml (20 mMol/L), and protected from light. Mice in administration group were injected with artemether at a dose of 20 mg/kg weight. Administration was twice a week for eight weeks. The mice were sacrificed by cervical dislocation and were dissected, and inguinal fat (Inguinal, subcutaneous fat), epididymal fat (Gonadal, visceral fat) and brown fat in the interscapular region (BAT, classic brown fat) were removed, weighed and fixed. The histological analysis of adipose tissue was commissioned by Shanghai Saige Biotech Co., Ltd., which included the steps of fixing, paraffin embedding, sectioning and HE staining.

CO[C@H]1O[C@@H]2O[C@@]3(C)CC[C@H]4[C@H](C)CC[C@@H]([C@H]1C)[C@@]24OO3 [artemether]
glucose tolerance [1]: significantly better than that of mice in control group | insulin tolerance [1]: significantly better than that of mice in control group | mRNA level of UCP1 ([2]; 3T3-L1, different concentrations of ART, Real time qPCR, 18S reference): significantly up-regulated | cell morphology of 3T3-L1 ([2]; artemether 5, 10 or from Day 0 of differentiation to maturity): exhibited typical brown adipocyte-like characteristics | weight gain of ob/ob mice (ob/ob mice): significantly slower than that of mice in control group | weight of ob/ob mice (ob/ob mice): tended to be lower than that of mice in control group, but was not statistically different | diet consumption of mice ([3]; high-fat groups): substantially the same as that of mice in control group | anorexia nervosa ([3]; normal diet and high fat diet): did not cause anorexia nervosa | diet consumption of mice ([3]; normal groups): not different from that of mice in control group | adipocyte size (sectioning and HE staining) (high fat-fed mice): significantly smaller than that of mice in control group | volume of adipose tissue (high fat-fed mice): significantly smaller than that of mice in control group | weight of adipose tissue (high fat-fed mice): significantly smaller than that of mice in control group
